Data: patent US10894808B2, “Polypeptide ligands specific for plasma kallikrein” (BicycleRD Limited, priority 2013, dated 2021)
Read-outs that look alike come from different tables or passages of the source. Each block holds one compound with its values, some of them ahead of it. *1 amine or outer side, *2 acyl side, *3 side chain or, on linkers, in order; H or OH if unused. Where a SMILES comes first, the peptide text is derived from it. Bridges are numbered along the chain shown (N, C = ends). [ ]: non-standard residue; d: D form. TBMB = c1c(C[*:1])cc(C[*:3])cc1C[*:2]; hArg = N=C(N)NCCCC[C@H](N)C(=O)O; Aze = O=C(O)[C@@H]1CCN1; Sar = CNCC(=O)O

Legend:
[1] = target: T1, biotinylated human plasma kallikrein (Homo sapiens, UniProt P03952); assay: Homogeneous plate-based screening assay of TBMB-cyclised phage clones (signal:background); format: binding
T1 construct: The human kallikrein is non-recombinant and therefore the heavy chain is present; purchased Innovative Research, Novi, Mich., USA IHPKA; host or cells: from human plasma
T1 sequence (P03952 391-638 limits assumed): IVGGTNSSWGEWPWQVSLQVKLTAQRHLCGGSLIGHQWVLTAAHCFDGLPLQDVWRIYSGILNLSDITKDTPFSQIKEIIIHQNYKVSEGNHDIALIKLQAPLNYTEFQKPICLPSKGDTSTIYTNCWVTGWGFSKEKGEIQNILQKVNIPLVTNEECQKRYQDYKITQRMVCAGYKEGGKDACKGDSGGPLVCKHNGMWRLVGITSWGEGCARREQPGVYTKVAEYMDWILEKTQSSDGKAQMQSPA
T1 sequence (P03952 20-390 partner limits assumed): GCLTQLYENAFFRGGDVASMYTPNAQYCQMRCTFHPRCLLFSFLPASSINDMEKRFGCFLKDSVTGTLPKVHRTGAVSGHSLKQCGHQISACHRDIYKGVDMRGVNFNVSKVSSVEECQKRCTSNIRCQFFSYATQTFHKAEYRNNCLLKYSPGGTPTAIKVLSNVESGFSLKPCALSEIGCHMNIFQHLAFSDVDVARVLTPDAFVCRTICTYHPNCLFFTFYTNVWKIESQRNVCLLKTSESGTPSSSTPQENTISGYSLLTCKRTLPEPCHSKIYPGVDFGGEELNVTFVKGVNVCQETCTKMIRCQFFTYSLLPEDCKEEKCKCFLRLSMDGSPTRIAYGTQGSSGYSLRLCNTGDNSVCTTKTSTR
Procedure: Assay of binding of individual clones: Library transformant colonies were picked at random and grown as individual cultures in 2TY broth containing selective antibiotic. The picked colonies were DNA-sequenced using a QIAgen PyroMark Q96 DNA sequencer to reveal the amino-acid substitution present in each clone. Where isolated, a clone of each unique substitution was assayed for human plasma kallikrein binding as follows. The phage-containing supernatant was harvested from the culture and phage were cyclised with tris bromomethyl benzene (TBMB) based on the methods of Heinis et al (Nature Chemical Biology vol. 5 pp 502-507 (2009)). The purified phage from this process were assayed for binding to biotinylated human plasma kallikrein using a homogeneous plate-based binding assay; assay read-out measured on a BMG Labtech Pherastar FS plate reader. The quantitative binding data from triplicate assay samples was averaged (mean) and expressed as signal:background (where background was a sample assayed with no target material). The signal:background was expressed as a % of the parallel parent sample. Error bars denote standard deviation of the mean. Assays shown are representative of at least 2 independent experiments. The assay data was correlated with the peptide sequences. Substitutions marked in grey were not tested (a clone was not isolated from the random library sampling). A sample of a non-binding (arbitrary) bicycle was assayed in parallel to illustrate the assay baseline.
Assay of binding of individual clones: Library transformant colonies, or selection output colonies, were picked and grown as individual cultures in 2TY broth containing selective antibiotic. The picked colonies were DNA-sequenced using a QIAgen PyroMark Q96 DNA sequencer to reveal the amino-acid substitution present in each clone, and were assayed for human plasma kallikrein binding as follows. The phage-containing supernatant was harvested from the culture and phage were cyclised with tris-bromomethylbenzene (TBMB) based on the methods of Heinis et al (Nature Chemical Biology vol. 5 pp 502-507 (2009)). The purified phage from this process were assayed for binding to biotinylated human plasma kallikrein using a homogeneous plate-based binding assay; assay read-out measured on a BMG Labtech Pherastar FS plate reader. The quantitative binding data from duplicate assay samples was averaged (mean) and expressed as signal:background. Assay data shown is representative of at least 2 independent experiments. The assay data was correlated with the peptide sequences.

human plasma kallikrein = target: T2, human plasma kallikrein (Homo sapiens, UniProt P03952); assay: Functional enzyme assay, inhibition of human plasma kallikrein (Z-PheArg-AMC substrate); format: biochemical
T2 construct: purchased Stratech, UK
T2 sequence (P03952 391-638 limits assumed): as the sequence (P03952 391-638 limits assumed) above
T2 sequence (P03952 20-390 partner limits assumed): as the sequence (P03952 20-390 partner limits assumed) above
Procedure: (§1) Functional enzyme assays were conducted in 10 mM Tris HCl, 150 mM NaCl, 10 mM MgCl2, 1 mM CaCl2 and 1 mg/mL BSA (all Sigma UK) pH 7.4 at 25° C. in solid black 96 or 384 well plates. […] Release of AMC was measured using a Pherastar FS (BMG Labtech), excitation 360 nm, emission 460 nm. The rate of the linear phase of the reaction, typically 5 to 45 minutes, was calculated in MARS data analysis software (BMG labtech). The rate was then used to calculate the IC50 and Ki in Prism (GraphPad). A four parameter inhibition non-linear regression equation was used to calculate the IC50. […]
(§2) Peptides were dissolved as the TFA-salts in their powder form, and stock solutions were usually prepared in water. All solutions were centrifuged and filtered ([…] syringe filters) prior to absorption measurement at 280 nm. Extinction coefficients were calculated based on the Trp/Tyr content of the peptide, and that of TMB (the TMB core, when contained in a peptide, has an extinction coefficient of ˜300 M^−1 cm^−1).

rabbit kallikrein = rabbit kallikrein (Oryctolagus cuniculus, UniProt G1T127); assay: Functional enzyme assay, inhibition of rabbit kallikrein; format: biochemical
rabbit kallikrein, sequence (G1T127 20-629): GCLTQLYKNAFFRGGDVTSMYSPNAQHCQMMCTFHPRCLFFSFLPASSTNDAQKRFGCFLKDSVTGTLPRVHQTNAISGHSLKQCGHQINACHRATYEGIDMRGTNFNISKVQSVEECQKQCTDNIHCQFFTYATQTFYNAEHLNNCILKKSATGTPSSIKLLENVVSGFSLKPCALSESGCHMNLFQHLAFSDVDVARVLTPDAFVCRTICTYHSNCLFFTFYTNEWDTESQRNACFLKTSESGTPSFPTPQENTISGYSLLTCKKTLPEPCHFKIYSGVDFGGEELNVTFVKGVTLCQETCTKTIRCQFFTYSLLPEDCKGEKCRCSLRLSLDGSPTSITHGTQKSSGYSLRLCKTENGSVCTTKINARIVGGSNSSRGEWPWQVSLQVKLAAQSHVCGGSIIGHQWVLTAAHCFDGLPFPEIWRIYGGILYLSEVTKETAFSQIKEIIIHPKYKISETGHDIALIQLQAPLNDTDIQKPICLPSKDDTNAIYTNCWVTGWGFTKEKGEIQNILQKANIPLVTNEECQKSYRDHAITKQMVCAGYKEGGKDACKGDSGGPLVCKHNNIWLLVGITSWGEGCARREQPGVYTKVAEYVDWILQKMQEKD
Procedure: as §1, §2

rat plasma kallikrein = target: T3, rat plasma kallikrein (Rattus norvegicus, UniProt P14272); assay: Functional enzyme assay, inhibition of rat plasma kallikrein (Z-PheArg-AMC substrate); format: biochemical; details: Table 1, synthetic peptides; read-out: Rat (Ki)
T3 construct: polyhistidine tag followed by proTEV cleavage site (pro-peptide) (N, cleaved yes); made in house; host or cells: HEK-293 (suspension-adapted), pEXPR-IBA42 vector
T3 sequence (P14272 391-638 limits assumed): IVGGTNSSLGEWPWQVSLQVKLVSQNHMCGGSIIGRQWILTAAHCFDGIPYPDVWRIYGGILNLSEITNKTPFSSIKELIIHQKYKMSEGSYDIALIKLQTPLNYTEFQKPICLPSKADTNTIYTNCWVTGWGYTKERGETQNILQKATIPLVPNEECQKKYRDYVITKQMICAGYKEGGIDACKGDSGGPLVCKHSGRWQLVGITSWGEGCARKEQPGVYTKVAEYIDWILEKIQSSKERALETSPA
Procedure: as §1, §2

[2] = Table 3, 06-254 affinity-matured library
[3] = Table 1, synthetic peptides, read-out: Human (Ki)

S:B (Signal:Background) [1, 2]: 61.90
Compound: CC[C@H](C)[C@@H]1NC(=O)[C@H](CC(C)C)NC(=O)[C@H](CC(=O)O)NC(=O)[C@@H]2CSCc3cc(cc(c3)CSC[C@@H](C(=O)N[C@@H](C)C(N)=O)NC(=O)[C@H]([C@@H](C)O)NC(=O)[C@H]([C@@H](C)O)NC(=O)[C@H](CCC(=O)O)NC1=O)CSC[C@H](NC(=O)[C@H](C)N)C(=O)N[C@@H](CCCCN)C(=O)N[C@@H](CC(N)=O)C(=O)N[C@@H](Cc1ccc(O)cc1)C(=O)N[C@@H](Cc1c[nH]c3ccccc13)C(=O)N[C@@H](CC(N)=O)C(=O)N1CCC[C@H]1C(=O)N2 [06-254-01] (H-ACKNYWNPCDLIETTCA-NH2; linker 2-9-16 via TBMB; N-terminus and C-terminus assumed)

Ki (human plasma kallikrein; Table 5, read-out: Human (Ki)): 0.0005 µM
S:B (Signal:Background) [1, 2]: 46.65
Compound: CC[C@H](C)[C@@H]1NC(=O)[C@H](CC(C)C)NC(=O)[C@H](CC(=O)O)NC(=O)[C@@H]2CSCc3cc(cc(c3)CSC[C@@H](C(=O)N[C@@H](C)C(N)=O)NC(=O)[C@@H]3CCCN3C(=O)CNC(=O)[C@@H]3CCCN3C1=O)CSC[C@H](NC(=O)[C@H](C)N)C(=O)N[C@@H](CCCCN)C(=O)N[C@@H](CC(N)=O)C(=O)N[C@@H](Cc1ccc(O)cc1)C(=O)N[C@@H](Cc1c[nH]c3ccccc13)C(=O)N[C@@H](CC(N)=O)C(=O)N1CCC[C@H]1C(=O)N2 [06-254-02] (H-ACKNYWNPCDLIPGPCA-NH2; linker 2-9-16 via TBMB; N-terminus assumed)

Ki (human plasma kallikrein; Table 5, read-out: Human (Ki)): 0.0014 µM
S:B (Signal:Background) [1, 2]: 56.70
Compound: CSCC[C@@H]1NC(=O)[C@H](C(C)C)NC(=O)[C@H](CC(C)C)NC(=O)[C@H](CC(=O)O)NC(=O)[C@@H]2CSCc3cc(cc(c3)CSC[C@@H](C(=O)N[C@@H](C)C(N)=O)NC(=O)[C@H]([C@@H](C)O)NC(=O)[C@H](CC(=O)O)NC1=O)CSC[C@H](NC(=O)[C@H](C)N)C(=O)N[C@@H](CCCCN)C(=O)N[C@@H](CC(N)=O)C(=O)N[C@@H](Cc1ccc(O)cc1)C(=O)N[C@@H](Cc1c[nH]c3ccccc13)C(=O)N[C@@H](CC(N)=O)C(=O)N1CCC[C@H]1C(=O)N2 [06-254-03] (H-ACKNYWNPCDLVMDTCA-NH2; linker 2-9-16 via TBMB; N-terminus and C-terminus assumed)

Ki (rabbit kallikrein; Table 1, synthetic peptides, read-out: Rabbit (Ki)): 1.46 µM
Ki (rabbit kallikrein; Table 5, read-out: Rabbit (Ki)): 1.46 µM
Ki (rat plasma kallikrein): 2.78 µM
Ki (human plasma kallikrein; [3]): 0.0066 µM
Compound: CC(C)[C@@H]1NC(=O)[C@H](CCCNC(=N)N)NC(=O)[C@@H]2CSCc3cc(cc(c3)CSC[C@@H](C(=O)N[C@@H](C)C(N)=O)NC(=O)[C@H](Cc3ccc(O)cc3)NC(=O)[C@H](CCCNC(=N)N)NC(=O)[C@H]([C@@H](C)O)NC(=O)[C@H](CC(=O)O)NC1=O)CSC[C@H](NC(=O)[C@H](C)N)C(=O)N[C@@H](CCC(N)=O)C(=O)N[C@@H](CCCCN)C(=O)N[C@@H](Cc1ccccc1)C(=O)N[C@@H](CCC(=O)O)C(=O)N[C@@H](CO)C(=O)N[C@@H](CCCNC(=N)N)C(=O)N2 [06-256] (H-ACQKFESRCRVDTRYCA-NH2; linker 2-9-16 via TBMB; N-terminus assumed)

Ki (rat plasma kallikrein): 0.159 µM
Ki (human plasma kallikrein; [3]): 0.0361 µM
Compound: CSCC[C@@H]1NC(=O)[C@H](CCCNC(=N)N)NC(=O)[C@H](CCCNC(=N)N)NC(=O)[C@H](Cc2ccc(O)cc2)NC(=O)[C@@H]2CSCc3cc(cc(c3)CSC[C@H](NC(=O)[C@H](C)N)C(=O)N3CCC[C@H]3C(=O)N[C@@H](CC(C)C)C(=O)N[C@@H](CO)C(=O)N[C@@H](CC(=O)O)C(=O)N[C@@H]([C@@H](C)O)C(=O)N[C@@H](CC(C)C)C(=O)N2)CSC[C@@H](C(=O)N[C@@H](C)C(N)=O)NC(=O)[C@@H]2CCCN2C(=O)[C@@H]2CCCN2C1=O [06-257] (H-ACPLSDTLCYRRMPPCA-NH2; linker 2-9-16 via TBMB; N-terminus assumed)

Continued, compound first:

Compound: CC(C)[C@@H]1NC(=O)[C@H](CO)NC(=O)[C@@H]2CSCc3cc(cc(c3)CSC[C@@H](C(=O)N[C@@H](C)C(N)=O)NC(=O)[C@H](C(C)C)NC(=O)[C@@H]3CCCN3C(=O)[C@@H]3CCCN3C(=O)[C@H](CCC(=O)O)NC1=O)CSC[C@H](NC(=O)[C@H](C)N)C(=O)N[C@@H](CC(N)=O)C(=O)N[C@@H](Cc1c[nH]cn1)C(=O)N[C@@H](Cc1c[nH]c3ccccc13)C(=O)N[C@@H](CC(N)=O)C(=O)N1CCC[C@H]1C(=O)N[C@@H](Cc1c[nH]c3ccccc13)C(=O)N2 [06-259-01] (H-ACNHWNPWCSVEPPVCA-NH2; linker 2-9-16 via TBMB; N-terminus assumed)
S:B (Signal:Background) ([1]; Table 4, 06-259 affinity-matured library): 51.67

Compound: CC(C)C[C@@H]1NC(=O)[C@@H]2CCCN2C(=O)[C@H](C)NC(=O)[C@H](CC(=O)O)NC(=O)[C@H](Cc2c[nH]c3ccccc23)NC(=O)[C@@H]2CCCN2C(=O)[C@@H]2CSCc3cc(cc(c3)CSC[C@@H](C(=O)N[C@@H](C)C(N)=O)NC1=O)CSC[C@H](NC(=O)[C@H](C)N)C(=O)N[C@@H](CC(N)=O)C(=O)N[C@@H](Cc1ccc(O)cc1)C(=O)N[C@@H](Cc1c[nH]c3ccccc13)C(=O)N[C@@H](CC(N)=O)C(=O)N1CCC[C@H]1C(=O)N[C@@H](Cc1c[nH]c3ccccc13)C(=O)N2 [06-259-04] (H-ACNYWNPWCPWDAPLCA-NH2; linker 2-9-16 via TBMB; N-terminus assumed)
Ki (human plasma kallikrein; Table 5, read-out: Human (Ki)): 0.0034 µM

Compound: CC[C@H](C)[C@@H]1NC(=O)[C@H](CC(C)C)NC(=O)[C@H]([C@@H](C)O)NC(=O)[C@@H]2CSCc3cc(cc(c3)CSC[C@@H](C(=O)N[C@@H](C)C(=O)N(C)CC(=O)N(C)CC(=O)N(C)CC(=O)N[C@H](CCCNC(=N)N)C(=O)N[C@H](CCCNC(=N)N)C(N)=O)NC(=O)[C@H]([C@@H](C)O)NC(=O)[C@H]([C@@H](C)CC)NC(=O)[C@H](CC(N)=O)NC1=O)CSC[C@H](NC(C)=O)C(=O)N[C@@H](CCCNC(=N)N)C(=O)N[C@@H](CC(N)=O)C(=O)N[C@@H](Cc1ccc(O)cc1)C(=O)N[C@@H](Cc1c[nH]c3ccccc13)C(=O)N[C@@H](CC(N)=O)C(=O)N1CCC[C@H]1C(=O)N2 [Ac-(06-255)-Sar3-(DArg2)] (Ac-CRNYWNPCTLINITCA[Sar][Sar][Sar][dR][dR]-NH2; linker 1-8-15 via TBMB)
Ki (human plasma kallikrein): 0.0012 µM

Compound: CC[C@H](C)[C@@H]1NC(=O)[C@H](CC(C)C)NC(=O)[C@H]([C@@H](C)O)NC(=O)[C@@H]2CSCc3cc(cc(c3)CSC[C@H](NC(C)=O)C(=O)N[C@@H](CCCNC(=N)N)C(=O)N[C@@H](CC(N)=O)C(=O)N[C@@H](Cc3ccc(O)cc3)C(=O)N[C@@H](Cc3c[nH]c4ccccc34)C(=O)N[C@@H](CC(N)=O)C(=O)N3CCC[C@H]3C(=O)N2)CSC[C@@H](C(N)=O)NC(=O)[C@H]([C@@H](C)O)NC(=O)[C@H]([C@@H](C)CC)NC(=O)[C@H](CC(N)=O)NC1=O [Ac-(06-255)] (Ac-CRNYWNPCTLINITC-NH2; linker 1-8-15 via TBMB; C-terminus assumed)
Ki (rabbit kallikrein): 0.342 µM

Compound: CC[C@H](C)[C@@H]1NC(=O)[C@H](CC(=O)O)NC(=O)[C@@H]2CCCN2C(=O)[C@H](Cc2ccc(O)cc2)NC(=O)[C@H](Cc2ccc(O)cc2)NC(=O)[C@H](C(C)C)NC(=O)[C@@H]2CSCc3cc(cc(c3)CSC[C@H](NC(C)=O)C(=O)N[C@@H](CO)C(=O)N[C@@H](Cc3ccccc3)C(=O)N3CC[C@H]3C(=O)N[C@@H](Cc3ccc(O)cc3)C(=O)N[C@@H](CCCCNC(=N)N)C(=O)N2)CSC[C@@H](C(N)=O)NC1=O [Ac-(06-550) Aze3 HArg5] (Ac-CSF[Aze]Y[hArg]CVYYPDIC-NH2; linker 1-7-14 via TBMB)
Ki (human plasma kallikrein): 0.0005 µM
